Data taken from patent US8518917B2, “2-methylene-19-nor-vitamin D analogs and their uses” (Wisconsin Alumni Research Foundation, priority 2009, dated 2013).
Where two headings read alike, the source gives them in different places.

What was measured:
[1] = system: 24-hydroxylase (24Ohase) gene promoter; assay: In vitro transcription assay, luciferase reporter in ROS 17/2.8 (bone) cells; assay type: cell-based; settings: FIG. 3; for EC50: ROS 17/2.8 cells, sixteen hours after dosing, read-out: EC50, transcriptional activity in bone cells (24-hydroxylase gene)
Description: Transcription activity was measured in ROS 17/2.8 (bone) cells that were stably transfected with a 24-hydroxylase (24Ohase) gene promoter upstream of a luciferase reporter gene (Arbour et al., 1998). Cells were given a range of doses. Sixteen hours after dosing the cells were harvested and luciferase activities were measured using a luminometer. RLU=relative luciferase units.

vitamin D-deficient rats [2] = assay: Bone calcium mobilization (serum calcium); assay type: in vivo, rat
Description: (§1) Male, weanling Sprague-Dawley rats were placed on Diet 11 (Suda et al, J. Nutr. 100:1049, 1970) (0.47% Ca)+vitamins AEK for one week followed by Diet 11 (0.02% Ca)+vitamins AEK for 3 weeks. The rats were then switched to the same diet containing 0.47% Ca for one week followed by two weeks on the same diet containing 0.02% Ca. Dose administration began during the last week on 0.02% calcium diet. Four consecutive ip doses were given approximately 24 hours apart. Twenty-four hours after the last dose, blood was collected from the severed neck and the concentration of serum calcium determined by atomic absorption spectrometry as a measure of bone calcium mobilization. The first 10 cm of the intestine was also collected for intestinal calcium transport analysis using the everted gut sac method.

[3] = system: Human promyelocytic leukemia (HL60) cells; assay: HL-60 cell differentiation (nitro blue tetrazolium reduction); assay type: cell-based; settings: four days treatment, read-out: EC50, promotion of HL60 differentiation
Description: The study drugs were dissolved in ethanol and the concentrations determined using UV spectrophotometry. Serial dilutions were prepared so that a range of drug concentrations could be tested without changing the final concentration of ethanol (≦0.2%) present in the cell cultures.
Human promyelocytic leukemia (HL60) cells were grown in RPMI-1640 medium containing 10% fetal bovine serum. The cells were incubated at 37° C. in the presence of 5% CO2.
HL60 cells were plated at 1.2×10^5 cells/ml. Eighteen hours after plating, cells in duplicate were treated with drug. Four days later, the cells were harvested and a nitro blue tetrazolium reduction assay was performed (Collins et al., 1979; J. Exp. Med. 149:969-974). The percentage of differentiated cells was determined by counting a total of 200 cells and recording the number that contained intracellular black-blue formazan deposits. Verification of differentiation to monocytic cells was determined by measuring phagocytic activity (data not shown).

[4] = biological target: T1, full-length recombinant rat vitamin D receptor (Rattus norvegicus, UniProt P13053); assay: Vitamin D receptor competitive binding with [3H]-1,25(OH)2D3; settings: read-out: Ki, competition with [3H]-1,25(OH)2D3 for binding to vitamin D receptor
T1 construct: Full-length recombinant rat receptor was expressed in E. coli; histidine tag (C); made in house; host or cells: E. coli BL21 (DE3) Codon Plus RIL
T1 sequence (P13053 1-423): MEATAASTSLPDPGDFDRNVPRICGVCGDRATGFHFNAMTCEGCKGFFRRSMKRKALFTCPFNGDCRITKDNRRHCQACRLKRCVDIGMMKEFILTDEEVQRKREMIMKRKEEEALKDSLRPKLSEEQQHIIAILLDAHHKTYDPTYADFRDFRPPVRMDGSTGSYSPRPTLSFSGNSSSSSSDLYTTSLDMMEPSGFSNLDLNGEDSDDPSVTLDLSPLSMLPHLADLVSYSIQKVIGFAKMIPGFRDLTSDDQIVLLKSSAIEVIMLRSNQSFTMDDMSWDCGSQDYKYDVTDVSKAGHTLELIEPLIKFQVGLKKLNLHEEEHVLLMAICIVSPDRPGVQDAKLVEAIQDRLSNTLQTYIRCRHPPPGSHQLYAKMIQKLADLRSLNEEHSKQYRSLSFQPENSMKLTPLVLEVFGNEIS
Description: Full-length recombinant rat receptor was expressed in E. coli BL21 (DE3) Codon Plus RIL cells and purified to homogeneity using two different column chromatography systems. The first system was a nickel affinity resin that utilizes the C-terminal histidine tag on this protein. The protein that was eluted from this resin was further purified using ion exchange chromatography (S-Sepharose Fast Flow). Aliquots of the purified protein were quick frozen in liquid nitrogen and stored at −80° C. until use. For use in binding assays, the protein was diluted in TEDK50 (50 mM Tris, 1.5 mM EDTA, pH7.4, 5 mM DTT, 150 mM KCl) with 0.1% Chaps detergent. The receptor protein and ligand concentration was optimized such that no more than 20% of the added radiolabeled ligand was bound to the receptor.
The following day, 100 mcl of hydroxylapatite slurry (50%) was added to each tube and mixed at 10-minute intervals for 30 minutes. […] After the final wash, the pellets were transferred to scintillation vials containing 4 ml of Biosafe II scintillation cocktail, mixed and placed in a scintillation counter. Total binding was determined from the tubes containing only radiolabeled ligand.

vitamin D-deficient rats [5] = assay: Intestinal calcium transport (everted gut sac method); assay type: in vivo, rat; settings: rats on 0.02% Ca diet, four consecutive ip doses
Description: as §1

[6] = 780 pmol/day for 4 consecutive days, ip, rats on 0.02% Ca diet
[7] = four consecutive ip doses, rats on 0.02% Ca diet

Compound | EC50 [1] [nM] | mobilization of bone calcium (serum calcium) (vitamin D-deficient rats [2]; 87 pmol, four consecutive ip doses, FIG. 8) | mobilization of bone calcium (serum calcium) (vitamin D-deficient rats [2]; [6]) | EC50 ([3]; FIG. 2 experiment) [nM] | EC50 ([3]; FIG. 7 experiment) [nM] | times less potent than 1,25(OH)2D3 in increasing transcription of the 24-hydroxylase gene ([1]; bone cells) | Ki ([4]; FIG. 1 experiment (1-desoxy-2MD vs 1,25(OH)2D3)) [nM] | dose until which little to no bone calcium mobilization activity is observed (vitamin D-deficient rats [2]; [7]) [pmol/rat] | times less potent than 1,25(OH)2D3 in promoting intestinal calcium transport (vitamin D-deficient rats [5]) | EC50 ([3]; Homo sapiens, HL-60, 96 h, FIG. 2 experiment) [nM] | Ki ([4]; FIG. 6 experiment (1D-MJ vs 1,25(OH)2D3)) [nM] | EC50 ([3]; Homo sapiens, HL-60, 96 h, FIG. 7 experiment) [nM]
C=C1/C(=C\C=C2/CCC[C@]3(C)[C@@H]([C@H](C)CCCC(C)(C)O)CC[C@@H]23)C[C@@H](O)C[C@@H]1O [1α,25-dihydroxyvitamin D3, reference compound] | 0.2 | significant increases in serum calcium | significant increases in serum calcium | 4 | 3 |  |  |  |  |  |  | 
C=C1CC/C(=C\C=C2/CCC[C@]3(C)[C@@H]([C@@H](C)CCCC(C)(C)O)CC[C@@H]23)C[C@H]1O [1-desoxy-2MD, (20S)-25-hydroxy-2-methylene-19-nor-vitamin D3] | 4 |  | little or no mobilization of bone calcium |  |  | about 20 times | 0.1 | ≥ 7020 | about 20 times | 10 |  | 
C=C1CC/C(=C\C=C2/CCC[C@]3(C)[C@@H]([C@H](C)CCCC(C)(C)O)CC[C@@H]23)C[C@H]1O [1D-MJ, (20R)-25-hydroxy-2-methylene-19-nor-vitamin D3] |  |  | little or no mobilization of bone calcium |  |  |  |  | ≥ 7020 | about 10 times |  | 4 | 300
